Values quoted from earlier work in patent US20130039858A1, “NIR MATERIALS AND NANOMATERIALS FOR THERANOSTIC APPLICATIONS” (University of Florida Research Foundation, Inc., priority 2010, published 2013).

Details: in H2O

critical micelle concentration: about 0.32 mg/mL
Compound: CC1(C)C(/C=C/C=C/C=C/C=C2\N(CCCCS(=O)(=O)O)c3ccc4ccccc4c3C2(C)C)=[N+](CCCCS(=O)(=O)[O-])c2ccc3ccccc3c21 [ICG, indocyanine green]
